Assay results taken from patent US20090293139A1, “DOUBLE-INDUCIBLE GENE ACTIVATION SYSTEM AND ITS APPLICATIONS” (The Texas A&M University System Agency State of Texas, priority 2008, published 2009).

How the values were obtained:
[1] = tested on: iCasp3 precursors; experiment: Western blot (anti-HA) of transfected cell lysates, iCasp3; format: cell-based, monkey; conditions: for expression of iCasp3 precursors: CVI cells transfected with Glp65 and pTATA-HA-iCasp3, drug alone, anti-HA Western blot
Procedure: (§1) A double-inducible gene activation system was evaluated in vitro using a cell culture model. Three plasmids were constructed: 1) chimeric transcription factor, Glp65 containing progesterone receptor ligand-binding domain (PR-LBDΔ) (FIG. 1); 2) pTATA-HA-iCasp3 (myristoylated) carrying CBD; and 3) pTATA-HA-iCasp9 carrying CBD (FIGS. 1 and 2). The chimeric transcription factor and one of the two caspase plasmids were transfected into CVI cells (monkey kidney fibroblasts).
(§2) One plasmid expressed a tissue-specific chimeric transcription factor (Glp65) that can be activated by RU486, which functioned as the first induction in our system. In this case, an epidermal-specific keratin 14 (K14) promoter was used to direct gene expression to the keratinocytes of the basal epidermis and hair follicles (KI4-Glp65, FIG. 1; Cao et al., 2002; Kucra et al., 1996). The second plasmid expressed the target transgene. The plasmid contained four copies of the 17-mer GAL4 binding site in the promoter region (FIG. 1). Full length of caspase-3 cDNA with CID binding domain and HA-tag fragment was cloned by polymerase chain reation (PCR) from an expression vector pSH1/M-Fv2-Yama-E (Fan et al., 1999) and was then subcloned into p17×4 TATA-H2 kd vector (Bo et al., 2005) by ClaI and BamH I to generate pTATA-HA-iCasp3 […].
(§3) Cell lysates were assessed by Western blot using an anti-HA antibody. […] With the subsequent application of CID, caspase 3 and caspase 9 were activated as evidenced by the disappearance of the caspase precursors due to the hemagglutinin (HA) tag carrying a caspase cleavage consensus site, DVPD (lanes 4 in FIGS. 3 and 4).

[2] = tested on: iCasp9; experiment: Western blot (anti-HA) of transfected cell lysates, iCasp9; format: cell-based, monkey; conditions: for expression of iCasp9 precursors: CVI cells transfected with Glp65 and pTATA-HA-iCasp9, drug alone, anti-HA Western blot
Procedure: as §1, §2, §3

[3] = tested on: caspase-3; experiment: Clonetech ApoAlert Caspase Assay, caspase-3 activity in transfected CVI cells; format: cell-based, monkey; conditions: CVI cells treated for 1.5 hrs
Procedure: as §1

[4] = tested on: caspase-9; experiment: Clonetech ApoAlert Caspase Assay, caspase-9 activity in transfected CVI cells; format: cell-based, monkey; conditions: CVI cells treated for 1.5 hrs
Procedure: as §1

[5] = tested on: K14-Glp65/iCasp3 and K14-Glp65/iCasp9 bigenic mice; experiment: Skin phenotype of adult bigenic mice after RU486 pellet and intraperitoneal CID; format: in vivo, mouse
Procedure: A double-inducible gene activation system was tested in vivo in two bigenic mouse lines, K14-Glp65/iCasp3 and K14-Glp65/iCasp9. The bigenic mice were generated by breeding two individual mouse lines.
The breeding of the first and second transgenic mouse lines generated bigenic mice called K14-Glp65/iCasp3 and K14-Glp65/iCasp9, which harbored both RU486 and CID regulators as depicted in FIG. 1. With the application of RU486, the Glp65 fusion protein was exclusively expressed in skin keratinocytes, which subsequently initiated caspase precursor induction.
Bigenic mice between 8 and 15 weeks of age were subjected to RU486 treatment using a 21-day-release pellet that was surgically inserted beneath the skin in the region of the posterior scapula. The addition of RU486 activates the chimeric transcription factor and allows it to bind to the GAL4 DNA binding site of the caspase precursor target gene (either icasp3 or icasp9) and induces target gene expression. After seven days of RU486 treatment, CID was applied intraperitoneally to induce self-activation of caspase precursors. Placebo pellets lacking RU486 and CID-diluent were used for control groups.

[6] = tested on: caspase 3; experiment: Western blot of mouse skin tissues, induced caspase 3; format: in vivo; conditions: transgenic mouse skin
Procedure: (§4) To closely monitor the phenotypic changes of the skin of bigenic mice after the activation of caspases through the double-inducible system, we tested system in neonates by delivering RU486 in utero. The RU486 was dissolved in sesame oil and delivered intraperitoneally for 5 days at a dosage of 100 μg/kg per day into pregnant female K14-Glp65/iCasp3 and K14-Glp65/iCasp9 bigenic mice at 14.5 days gestation. To counter the abortion side-effect of RU486, progesterone (Sigma, St. Louis, Mo.) at 0.5 mg/mouse per day was applied along with RU486. Transgenic pups were treated topically with CID on their dorsal anterior-posterior (AP) axes twice per day and monitored closely for phenotypic changes or visible signs of apoptosis. Control littermates were treated with only the diluent only without CID. […] On day four, skin biopsies were taken from the back skin of the pups and fixed in 4% paraformaldehyde.

[7] = tested on: caspase 9; experiment: Western blot of mouse skin tissues, induced caspase 9; format: in vivo; conditions: transgenic mouse skin
Procedure: as §4

[8] = tested on: caspase precursors; experiment: Immunohistochemical staining of skin with anti-HA antibody; format: in vivo; conditions: adult mouse ear skins and newborn mouse back skins
Procedure: (§5) Induction of the two caspases was then further studied by immunohistochemical staining with an anti-HA antibody. […] Apoptosis was evaluated by TUNEL staining.

[9] = tested on: adult mouse ear skins and newborn mouse back skins; experiment: Microscopic and histological analysis of skin (H&E); format: in vivo
Procedure: The skin apoptosis was evaluated by TUNEL assay (panels j-l).
Skin sections from K14-Glp65/iCasp9 newborn mice back skin were visualized by H&E stain (panels a-c), and were immunostained by keratin 14 antibody (panels d-f). […] The skin apoptosis was evaluated by TUNEL assay (panels j-l).
Apoptosis was evaluated by TUNEL staining.

[10] = tested on: adult mouse ear skins and newborn mouse back skins; experiment: TUNEL staining of skin (apoptosis); format: in vivo
Procedure: as §5

[11] = tested on: K14-Glp65/iCasp3 and K14-Glp65/iCasp9 bigenic mice; experiment: Skin phenotype of neonates after RU486 in utero and topical CID; format: in vivo, mouse; conditions: RU486 in utero; topical CID twice per day, after two days; compared to control littermates
Procedure: as §4

[12] = subsequent application of CID after RU486, CVI cells

SMILES	expression of iCasp3 precursors [1]	expression of iCasp9 precursors [2]	increase in caspase-3 activity [3]	increase in caspase-9 activity [4]	skin phenotype of ears ([5]; adult bigenic mice that only received RU486 treatment)	expression level of induced caspase 3 [6]	expression level of induced caspase 9 [7]	expression of caspase precursors (anti-HA staining) [8]	skin structure [9]	TUNEL-positive nuclei (apoptosis) [10]	caspase 3 activation (disappearance of the caspase precursors) [1, 12]	caspase 9 activation (disappearance of the caspase precursors) [2, 12]	skin phenotype of ears ([5]; adult bigenic mice, five days following intraperitoneal CID after seven days of RU486 pellet)	skin phenotype of pups [11]
CC#C[C@]1(O)CC[C@H]2[C@@H]3CCC4=CC(=O)CCC4=C3[C@@H](c3ccc(N(C)C)cc3)C[C@@]21C [RU486, mifepristone]	induced the expression	induced the expression	not	not	did not observe this phenotype	strong expression	strong expression	Strong expression	normal skin structures	no or basal level of apoptosis				
CC[C@H](C(=O)N1CCCC[C@H]1C(=O)O[C@H](CCc1ccc(OC)c(OC)c1)c1cccc(OCC(=O)NCC(CNC(=O)COc2cccc([C@@H](CCc3ccc(OC)c(OC)c3)OC(=O)[C@@H]3CCCCN3C(=O)[C@@H](CC)c3cc(OC)c(OC)c(OC)c3)c2)CN(C)C)c1)c1cc(OC)c(OC)c(OC)c1 [CID]	No caspase precursors were induced	No caspase precursors were induced	not	not					normal skin structures	no or basal level of apoptosis	activated	activated	reddening of the surface layers of the skin and thickness	exhibited peeling and appeared dehydrated
